Source: PMC10804372, “Degradation by Design: New Cyclin K Degraders from Old CDK Inhibitors” (ACS Chemical Biology, 2024)

Legend:
CDK9 = conditions: cited from earlier work
Cyclin K [1] = assay: Cyclin K levels by Western blot after single-concentration treatment; assay type: cell-based, human; conditions: HEK293T cells, 1 μM for 2 h; for Remaining Cyclin K (%): quantified from Western blots, mean ± SD, three independent experiments; for cyclin K degradation: Western blot
Protocol: (§1) HEK293T human […] kidney cells were cultured in DMEM (Gibco/Life Technologies), containing 25 mM D-glucose, 4 mM L-glutamine, and 1 mM sodium pyruvate, and supplemented with 10% (v/v) FBS and 1% nonessential amino acids (Gibco/Life Technologies). Cells were incubated at 37 °C in a humidified atmosphere with 5% CO2.
(§2) Cells were washed with PBS and lysed (20 mM HEPES pH 7.5, 10% glycerol, 0.4 M KCl, 0.4% Triton X-100, 15 mM EDTA, and 1× protease and phosphatase inhibitors). The insoluble fraction was removed by centrifugation. Protein quantification was performed using a Bradford assay and compared to a BSA calibration curve. Equal amounts of lysates were run on SDS–PAGE 4–12% Bis–Tris Protein Gels (NuPAGE, Thermo Fisher Scientific) and then transferred onto Immobilon-P PVDF Membrane (Millipore, IPVH00010) using a Mini Trans-Blot Cell (Bio-Rad, 1703930). The membranes were blocked with 5% bovine albumin serum (BSA) in Tris-buffered saline with Tween 20 (TBS-T) and incubated with primary antibodies overnight at 4 °C. The membranes were washed three times with TBS-T and incubated with HRP-conjugated secondary antibody (BioRad) for 2 h. Membranes were washed again three times with TBS-T before being developed using Pierce ECL Western Blotting Substrate (Thermo, 32106) and visualized using LI-COR. Antibodies were purchased from Cell Signaling Technology: anti-GAPDH (D4C6R) and anti-DDB1 (D4C8) or Bethyl Laboratories: anti-Cyclin K (A301-939A). The following HRP-linked secondary antibodies were used by dilution in 5% BSA/TBS-T: antirabbit IgG (BioRad, 5213–2504) and antimouse IgG (BioRad, 103005).
(§3) Unedited blots containing the marker lane are available on request. Western blots were quantified using ImageJ. Cyclin K levels were normalized using GAPDH as a loading control. DC50 values were calculated from concentration–response curves using nonlinear regression fit to a 4-parameter curve by GraphPad Prism.

PAMPA permeability = assay type: in vitro ADME; conditions: for Papp: pH 7.4, PAMPA, pH7.4, read-out: pH7.4 Papp x 10^-6
Cyclin K [2] = assay: Cyclin K degradation concentration-response (DC50, DMax) by Western blot; assay type: cell-based, human; conditions: for DMax (%) / DC50: HEK293T, Western blot quantification, 3 biological repeats; for DC50: read-out: CycK DC50
Protocol: With the aim of comparing the degradation ability of the new analogues, we derived DC50 values by using Western blotting (Table 5). […] This approach has been previously used to improve the potency of BCL6 degraders.[33] We therefore also measured CDK12 affinity using the KINOMEscan binding assay (Table 5).[34]
as §1, §2, §3

CDK12 = target: T1, CDK12 (Homo sapiens, UniProt Q9NYV4); assay: KINOMEscan binding assay (Eurofins DiscoverX); conditions: for Kd: KINOMEscan
T1 construct: purchased Eurofins DiscoverX (KINOMEscan service)

HEK293T cells = assay: Proteome-wide quantitation by mass spectrometry (TMT); assay type: cell-based, human; conditions: for number of proteins showing at least a −0.5 log2 fold change / cyclin K log2 fold decrease: HEK293T, 1 μM; for number of proteins showing at least a −0.5 log2 fold change: 2 h treatment; for cyclin K log2 fold decrease: 2 h vs DMSO; for log2FC compound 21 / log2FC compound 37: 1 uM 2h vs DMSO
CDK5 = conditions: cited from earlier work
CDK1 = conditions: cited from earlier work

T1 sequence (Q9NYV4 whole entry): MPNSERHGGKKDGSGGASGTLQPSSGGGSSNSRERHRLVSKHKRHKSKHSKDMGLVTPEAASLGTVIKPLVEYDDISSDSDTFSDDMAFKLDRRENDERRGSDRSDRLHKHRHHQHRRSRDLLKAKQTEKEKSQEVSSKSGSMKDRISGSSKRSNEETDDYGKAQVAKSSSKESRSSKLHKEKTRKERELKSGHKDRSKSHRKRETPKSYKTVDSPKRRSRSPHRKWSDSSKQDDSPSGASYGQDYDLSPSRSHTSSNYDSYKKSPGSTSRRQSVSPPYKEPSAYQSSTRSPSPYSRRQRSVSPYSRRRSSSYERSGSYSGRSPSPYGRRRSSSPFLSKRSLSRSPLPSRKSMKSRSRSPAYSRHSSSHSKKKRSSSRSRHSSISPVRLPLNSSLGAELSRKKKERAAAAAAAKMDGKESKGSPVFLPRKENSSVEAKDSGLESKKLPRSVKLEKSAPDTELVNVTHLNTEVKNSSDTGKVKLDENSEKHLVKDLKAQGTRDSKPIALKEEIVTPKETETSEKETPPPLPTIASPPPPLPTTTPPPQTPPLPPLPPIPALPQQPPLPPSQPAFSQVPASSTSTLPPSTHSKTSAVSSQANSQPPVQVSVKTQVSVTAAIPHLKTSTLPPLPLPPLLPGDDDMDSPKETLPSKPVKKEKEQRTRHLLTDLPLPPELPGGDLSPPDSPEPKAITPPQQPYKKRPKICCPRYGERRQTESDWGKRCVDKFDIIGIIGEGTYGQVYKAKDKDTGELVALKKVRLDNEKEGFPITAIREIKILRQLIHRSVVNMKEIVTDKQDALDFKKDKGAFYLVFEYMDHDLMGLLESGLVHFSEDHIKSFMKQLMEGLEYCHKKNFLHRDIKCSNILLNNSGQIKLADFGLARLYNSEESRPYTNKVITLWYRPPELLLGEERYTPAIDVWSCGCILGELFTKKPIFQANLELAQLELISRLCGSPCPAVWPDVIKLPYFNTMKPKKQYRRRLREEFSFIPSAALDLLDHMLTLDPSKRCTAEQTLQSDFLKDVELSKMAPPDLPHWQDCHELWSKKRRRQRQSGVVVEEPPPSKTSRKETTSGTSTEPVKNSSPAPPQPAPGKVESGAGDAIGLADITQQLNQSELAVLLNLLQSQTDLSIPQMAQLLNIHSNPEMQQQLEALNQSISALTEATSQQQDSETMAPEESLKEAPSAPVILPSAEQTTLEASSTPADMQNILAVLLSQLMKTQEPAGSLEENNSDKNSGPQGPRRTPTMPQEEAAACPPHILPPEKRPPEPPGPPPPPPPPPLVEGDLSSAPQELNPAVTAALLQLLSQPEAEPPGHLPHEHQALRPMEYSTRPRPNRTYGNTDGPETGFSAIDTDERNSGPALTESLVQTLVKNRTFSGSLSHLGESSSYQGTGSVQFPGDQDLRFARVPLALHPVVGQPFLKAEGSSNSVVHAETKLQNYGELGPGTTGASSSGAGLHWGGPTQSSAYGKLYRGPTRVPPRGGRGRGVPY

## CC[C@H](CO)Nc1nc(NCc2ccccc2)c2ncn(C(C)C)c2n1 [compound 2, reference compound]
CDK9
  activity at CDK9: sub-μM activity
Cyclin K [1]
  Remaining Cyclin K (%): 99 ± 1%

## CC[C@H](CO)Nc1nc(NCc2ccc(-c3ccc(O)cn3)cc2)c2ncn(C(C)C)c2n1 [compound 8]
PAMPA permeability
  Papp: < 0.3 ×10⁻⁶ cm/s
Cyclin K [1]
  Remaining Cyclin K (%): 94 ± 9%

## CC[C@H](CO)Nc1nc(NCc2ccc(-c3cc(=O)cc[nH]3)cc2)c2ncn(C(C)C)c2n1 [compound 15]
Cyclin K [2]
  DMax (%): >95%
  DC50: 18 nM
PAMPA permeability
  Papp: < 0.2 ×10⁻⁶ cm/s
CDK12
  Kd: 86 nM
Cyclin K [1]
  cyclin K degradation: total loss of degradation ability
  Remaining Cyclin K (%): 89 ± 11%

## CC[C@H](CO)Nc1nc(NCc2ccc(-c3ncccc3O)cc2)c2ncn(C(C)C)c2n1 [compound 20]
PAMPA permeability
  Papp: < 0.4 ×10⁻⁶ cm/s
Cyclin K [1]
  cyclin K degradation: reduced degradation ability compared to CR8
  Remaining Cyclin K (%): 35 ± 3%

## CC[C@H](CO)Nc1nc(NCc2ccc(C3=CCOCC3)cc2)c2ncn(C(C)C)c2n1 [compound 21]
Cyclin K [2]
  DMax (%): >95%
  DC50: 32 nM
PAMPA permeability
  PAMPA permeability: comparable permeabilities
  Papp: 40.2 ×10⁻⁶ cm/s
CDK12
  Kd: 280 nM
HEK293T cells
  number of proteins showing at least a −0.5 log2 fold change: six
  cyclin K log2 fold decrease: 2.47 log2 fold
HEK293T cells; protein CBX6
  log2FC compound 21: -0.5911
HEK293T cells; protein CCNK (Cyclin-K)
  log2FC compound 21: -2.4569
HEK293T cells; protein CDK13
  log2FC compound 21: -0.9121
HEK293T cells; protein FYTTD1
  log2FC compound 21: -0.5054
HEK293T cells; protein HES1
  log2FC compound 21: 0.4216
Cyclin K [1]
  cyclin K degradation: complete degradation comparable to CR8
  Remaining Cyclin K (%): 1 ± 1%

## CC[C@H](CO)Nc1nc(NCc2ccc(C3CCCCC3)cc2)c2ncn(C(C)C)c2n1 [compound 23]
PAMPA permeability
  Papp: 12.7 ×10⁻⁶ cm/s
Cyclin K [1]
  cyclin K degradation: degradation ability was significantly reduced
  Remaining Cyclin K (%): 74 ± 10%

## CC[C@H](CO)Nc1nc(NCc2ccc(N3CCOCC3)cc2)c2ncn(C(C)C)c2n1 [compound 25]
PAMPA permeability
  PAMPA permeability: comparable permeabilities
  Papp: 41 ×10⁻⁶ cm/s
Cyclin K [1]
  cyclin K degradation: only partial degradation
  Remaining Cyclin K (%): 41 ± 23%

## CC[C@H](CO)Nc1nc(NCc2ccc(-c3ccco3)cc2)c2ncn(C(C)C)c2n1 [compound 29]
Cyclin K [2]
  DMax (%): >95%
  DC50: 199 nM
Cyclin K [2]; furan analogues vs 1 (CR8), 36, 40
  fold decrease in degradation ability versus pyridine counterpart: 4–8 fold
PAMPA permeability
  Papp: 33.7 ×10⁻⁶ cm/s
CDK12
  Kd: 640 nM
Cyclin K [1]
  cyclin K degradation: complete degradation
  Remaining Cyclin K (%): 3 ± 2%

## CC[C@H](CO)Nc1nc(NCc2ccc(-c3cn(C)cn3)cc2)c2ncn(C(C)C)c2n1 [compound 30]
PAMPA permeability
  Papp: < 0.3 ×10⁻⁶ cm/s
Cyclin K [1]
  cyclin K degradation: decreased degradation ability
  Remaining Cyclin K (%): 38 ± 21%

## CC[C@H](CO)Nc1nc(NCc2ccc(-c3cn[nH]c3)cc2)c2ncn(C(C)C)c2n1 [compound 31]
PAMPA permeability
  PAMPA permeability: low permeability
  Papp: < 0.2 ×10⁻⁶ cm/s
Cyclin K [1]
  cyclin K degradation: complete loss of degradation
  Remaining Cyclin K (%): 93 ± 10%

## OCCC1CCCCN1c1cc(NCc2ccc(C3=CCOCC3)cc2)n2ncc(Br)c2n1 (stereo not shown) [compound 37]
Cyclin K [2]
  DMax (%): 75%
  DC50: 41 nM
CDK12; 36 vs 1, 37 vs 21
  fold better CDK12 affinity versus CR8/seliciclib-core analogue: 25 fold
CDK12
  Kd: 12 nM
HEK293T cells
  number of proteins showing at least a −0.5 log2 fold change: 28 proteins
  cyclin K log2 fold decrease: 0.75 log2 fold
HEK293T cells; protein ARF4
  log2FC compound 37: 0.5982
HEK293T cells; protein C1orf167
  log2FC compound 37: 0.8136
HEK293T cells; protein CBX6
  log2FC compound 37: -0.9913
HEK293T cells; protein CCNE2
  log2FC compound 37: 0.934
HEK293T cells; protein CCNK (Cyclin-K)
  log2FC compound 37: -0.7468
HEK293T cells; protein CD9
  log2FC compound 37: 0.636
HEK293T cells; protein CD59
  log2FC compound 37: 1.0368
HEK293T cells; protein CD63
  log2FC compound 37: 1.1474
HEK293T cells; protein CD151
  log2FC compound 37: 0.6898
HEK293T cells; protein CDKL5
  log2FC compound 37: 1.0373
HEK293T cells; protein CHCHD2
  log2FC compound 37: -1.0001
HEK293T cells; protein CHTOP
  log2FC compound 37: -0.8383
HEK293T cells; protein COPRS
  log2FC compound 37: 0.6
HEK293T cells; protein COX6B1
  log2FC compound 37: 0.6513
HEK293T cells; protein COX7A2
  log2FC compound 37: -1.2026
HEK293T cells; protein DCDC1
  log2FC compound 37: 1.1229
HEK293T cells; protein DDX56
  log2FC compound 37: -0.6203
HEK293T cells; protein DHX58
  log2FC compound 37: 0.8865
HEK293T cells; protein ECI1
  log2FC compound 37: 0.6918
HEK293T cells; protein EI24
  log2FC compound 37: 0.7719
HEK293T cells; protein FAM234A
  log2FC compound 37: 0.6256
HEK293T cells; protein FITM2
  log2FC compound 37: 0.6697
HEK293T cells; protein FYTTD1
  log2FC compound 37: -2.375
HEK293T cells; protein H2AC6
  log2FC compound 37: -2.0131
HEK293T cells; protein H2AC14
  log2FC compound 37: -1.9547
HEK293T cells; protein HES1
  log2FC compound 37: -0.614
HEK293T cells; protein HEY1
  log2FC compound 37: -0.6221
HEK293T cells; protein HMGN2
  log2FC compound 37: -0.636
HEK293T cells; protein KCTD1
  log2FC compound 37: 0.7125
HEK293T cells; protein LIPA
  log2FC compound 37: 0.6704
HEK293T cells; protein LPCAT3
  log2FC compound 37: 1.2861
HEK293T cells; protein LPIN2
  log2FC compound 37: 0.6164
HEK293T cells; protein LSM1
  log2FC compound 37: 0.8572
HEK293T cells; protein MBTPS2
  log2FC compound 37: 0.6567
HEK293T cells; protein MEIS1
  log2FC compound 37: -0.7346
HEK293T cells; protein MGARP
  log2FC compound 37: 0.6836
HEK293T cells; protein MSMO1
  log2FC compound 37: 0.6345
HEK293T cells; protein MT-ND4
  log2FC compound 37: 0.6222
HEK293T cells; protein NSA2
  log2FC compound 37: -1.3835
HEK293T cells; protein NXT2
  log2FC compound 37: 1.1373
HEK293T cells; protein PPP1CB
  log2FC compound 37: -0.7306
HEK293T cells; protein PPP1R15B
  log2FC compound 37: -0.7195
HEK293T cells; protein PRNP
  log2FC compound 37: 0.8396
HEK293T cells; protein RER1
  log2FC compound 37: 0.5962
HEK293T cells; protein RPF1
  log2FC compound 37: -0.9869
HEK293T cells; protein RPS14
  log2FC compound 37: -0.5979
HEK293T cells; protein RPS29
  log2FC compound 37: -0.7373
HEK293T cells; protein SIAE
  log2FC compound 37: 0.6299
HEK293T cells; protein SLC44A2
  log2FC compound 37: 0.8263
HEK293T cells; protein SNAI2
  log2FC compound 37: -1.0919
HEK293T cells; protein SURF6
  log2FC compound 37: -0.5977
HEK293T cells; protein TMSB4X
  log2FC compound 37: -0.7637
HEK293T cells; protein TOB1
  log2FC compound 37: -1.2431
HEK293T cells; protein TOB2
  log2FC compound 37: -0.8728
HEK293T cells; protein TVP23C
  log2FC compound 37: 0.6132
HEK293T cells; protein WHAMM
  log2FC compound 37: -1.0385
HEK293T cells; protein ZBTB17
  log2FC compound 37: 0.799
HEK293T cells; protein ZKSCAN2
  log2FC compound 37: -0.5989
HEK293T cells; protein ZNF92
  log2FC compound 37: -0.7406
HEK293T cells; protein ZNF385A
  log2FC compound 37: -0.6523
Cyclin K [1]
  cyclin K degradation: only partial degradation
  Remaining Cyclin K (%): 32 ± 11%

## CCc1cnn2c(NCc3ccc[n+]([O-])c3)cc(N3CCCC[C@H]3CCO)nc12 [dinaciclib]
CDK5
  activity at CDK5: sub-μM activity
CDK1
  activity at CDK1: sub-μM activity
